According to a melting point compilation (Tetko et al.; mined from patent text by program, amines drawn as free bases though some values may be those of a salt):

SMILES | melting point [°C]
CCOC(=O)C=Cc1cc2cc(OC)ccc2nc1Cl | 113 to 114
CNC(=O)N1c2ccccc2CC1C (centres undefined) | 158 to 160
CCCCCCCCc1sc(NC(=O)C2(C)Cc3cc(C)ccc3N2Cc2cccc(C(=O)OC)c2)nc1-c1cc(OC)c(Cl)cc1OC (centres undefined) | 165 to 166
O=S(=O)(c1ccccc1)n1cc(CCOC2OC(CO)CC(O)C2O)c2ccccc21 (centres undefined) | 64 to 65
COC(=O)CCCc1nc2[nH]c3ccccc3c2c(=O)[nH]1 | 258
Cc1ccc(NC(=S)NCCCO)c(C)c1 | 90 to 93
CCCOc1ccc(CC(=O)NCC(=O)OC)cc1Cl | 76 to 80
NC(=S)N1CCC(=O)C(C(c2ccccc2)c2ccccc2)C1 (centres undefined) | 107
CC(N)Cn1ncc2ccc3c(c21)CC(O)CO3 (centres undefined) | 46 to 51
CNc1nc(S(C)=O)nc(N)c1[N+](=O)[O-] (centres undefined) | 229 to 234
CC(C)(C)c1cc(CSP(=S)(C2CCCCC2)C2CCCCC2)cc(C(C)(C)C)c1O | 129 to 131
N#CCCCCOc1ccc(C=Cc2ccncc2)cc1 | 85 to 87
O=C(NOC(=O)c1ccccc1)OCc1ccccc1 | 112
O=S(=O)(CS(=O)(=O)/C(F)=C(/F)c1c(F)c(F)c(F)c(F)c1F)/C(F)=C(/F)c1c(F)c(F)c(F)c(F)c1F | 193 to 195
O=C(O)C(O)C(Sc1ccc(O)cc1)c1ccccc1CCCCCCCCc1ccccc1 (centres undefined) | 155 to 157
CCOC(=O)CCC(=O)c1ccc(C2CCCCC2)cc1 | 54 to 55
CCCCCCCCCCCCCCC(CCCCC(=O)O)CCCCC(=O)O | 48 to 50
CC1(C)Nc2ccc(Cl)cc2N(C2CC2)C1=O | 132 to 133
COCc1nc2c(N)cc(Br)cc2n1C | 138 to 140

SMILES | melting point [°C]
C[Si](C)(C)c1cc(O)c([Si](C)(C)C)cc1O | 162
C[C@@H]1NC(=O)c2cccc([N+](=O)[O-])c2N[C@H]1C (relative stereo) | 170
CCCOc1c(OC)cc(C=O)cc1SC | 64 to 66
COCCc1cnc(Cl)nc1 | 25 to 26
CC(=O)N1CCC(Oc2ccccc2N2CCCCC2)CC1 | 69 to 70
CCOC(=O)NC(=S)Nc1nnc(-c2cc(C(C)(C)C)c(O)c(C(C)(C)C)c2)s1 | > 250
CN(C)C(N)=Nc1cc(F)ccc1N1CCOCC1 | 137 to 138
CC(Cl)C(=O)c1ccc2c(c1)CCCC(=O)N2 (centres undefined) | 230
CC(C)(Sc1cc(C(C)(C)C)c(O)c(C(C)(C)C)c1)Sc1cc(C(C)(C)C)c(OCCO)c(C(C)(C)C)c1 | 146 to 147
CC1CC(=O)c2c(Cl)c(F)cc3c(=O)c(C(=O)O)cn1c23 (single isomer, unassigned; (-)) | 294 to 296
CC(=O)Nc1ccc2c(c1)CC(CC(=O)O)C2=O (single isomer, unassigned; (-)) | 190 to 192
O=C(O)c1ccc(Cl)nc1Nc1ccccc1 | 181 to 185
CCOC(=O)C1CCCN2CCC3c4cc(Cl)ccc4NC3C12 (centres undefined) | 124
Cc1ccc(C2SCC(=O)CS2)cc1 | 112 to 113
CC(C)c1nc2cc(NC(=O)c3c(C(=O)N4CCCC4)cnn3C)ccn2n1 | 141 to 143
CCOc1ccccc1Nc1nc(Nc2cc3c(cc2OC)CCN(CC(=O)N(C)C)CC3)ncc1Cl | 60 to 79
CC1CN(C)CC(C)(c2cccc(O)c2)O1 (centres undefined) | 142 to 143
COC(=O)C(C)(C)C(Cc1ccccc1)NCc1ccccc1 (centres undefined) | 92 to 94

Continued, values first:

melting point [°C] | SMILES
190 to 193 | CC(C)(C)c1ccc(Oc2coc(C(=O)O)cc2=O)cc1
98 to 100 | O=S(=O)(Nc1cccc(CCOCc2ccc(-c3ccc(C(F)(F)F)cc3)cc2)c1)C(F)(F)F
106 | O=S(=O)(c1ccc(Br)cc1)n1ccc2ccccc21
185 to 186 | CCCCNC(=O)NS(=O)(=O)c1cc2c(cc1OC)OCC(NC(=O)c1cc(Cl)ccc1OC)C2 (centres undefined)
140 to 145 | C[C@H](OC(=O)Oc1ccc([N+](=O)[O-])cc1)C(=O)N[C@@H]1C(=O)Nc2c(F)cccc2O[C@@H]1C
183 to 185 | O=C(O)CCCOc1ccc(CSc2[nH]nc(NS(=O)(=O)c3c(Cl)cccc3Cl)c2-c2ccccn2)cc1
117 to 120 | CC(OC(=O)c1cn(-c2ccc(F)cc2)c(-c2ccc(N(C)C)cc2)cc1=O)OC(=O)C(C)(C)C (centres undefined)
306 | COc1cc(C(=O)c2ncc3ccc(C(=O)O)cn23)ccc1N
79 | CC(C)Oc1cc(-n2c(=O)cc(C(F)(F)F)n(C)c2=O)c(F)cc1Br
251 to 252 | Cc1cc2c(-c3ccccc3Cl)c(C(=O)O)c(=O)n(C)c2cc1C
186 | CN(C)c1ccccc1CC(=O)N1C[C@@H]2[C@H](F)CCC(c3ccccc3)(c3ccccc3)[C@@H]2C1
134 to 138 | COC(=O)CCc1cc2cc(Cl)ccc2n1S(=O)(=O)c1ccc2ncsc2c1
218 to 219 | C=CCC1C(=O)N(Cc2ccccc2)c2ccccc2N(C(=O)CN2C(=O)c3ccccc3C2=O)C1C (centres undefined)
159 to 161 | COc1ccc2c(c1)C1(CO2)C(=O)N(C)c2ccccc21 (centres undefined)
80 to 82 | C[C@H]1C[C@@](O)(c2ccc(S(=O)(=O)c3ccc4c(c3)CCC(=O)N4C)s2)CCO1
202 to 203 | O=c1[nH]c2ccc(-c3cccc([N+](=O)[O-])c3)cc2n1Cc1ccccc1

melting point [°C] | SMILES
125 to 126 | Cc1ccc(S(=O)(=O)N(c2ccc(C#N)cc2[N+](=O)[O-])C(C)C)cc1
144 | CC[C@@]1(C)OC(=O)C(c2ccc(F)c(F)c2)=C1c1ccc(S(C)(=O)=O)cc1
144 to 146 | O=C(O)CCCN1C(=O)c2cccc([N+](=O)[O-])c2C1=O
125 | CCN(CC)CC1CCCN(CCNC(=O)N2c3cc(Cl)ccc3C(=O)Nc3cccnc32)C1 (centres undefined)
203 to 204 | FC(F)(F)c1ccc(-c2cnn(-c3cccnc3)c2)cn1
113 to 114 | Brc1ccc2ccc3ccccc3c2n1
188 to 189 | CCc1cccc2c(NC(=O)C[C@H]3O[C@H](c4cccc(OC)c4OC)c4cc(Cl)ccc4N(CC(C)(C)CO)C3=O)c(C(=O)O)oc12
131 | CCOC(=O)NC(=NCCC(c1ccccc1)c1ccc(F)cc1)NCCCc1c[nH]cn1 (centres undefined)
124 | CCc1cc(Br)cc(C(=O)Nc2ccc(F)cn2)n1
286 to 288 | COc1ccc(Nc2nc3cc4c(cc3[nH]2)NC(=O)C4(C)C)cc1
207 to 209 | Cc1ccc(C(c2ccc(C)cc2)(c2ccc(C)cc2)c2ccc(C#N)cc2)cc1
258 to 259 | Cc1c(S(=O)(=O)c2ccc(=O)[nH]n2)sc2ccc(Cl)cc12
182 to 183 | O=C(NN1CCCCC1)c1nc(-c2ccc(Cl)cc2Cl)n(-c2ccc(Cl)cc2)c1Br
192 to 193 | Cc1nnc(-c2ccc3occ(-c4cnn(Cc5ccccc5C#N)c4)c3c2)o1
200 to 203 | C#Cc1cccc(Nc2ncnc3cnc(NCc4ccc(OC)cc4)cc23)c1
109 to 110 | N[C@@H](Cc1ccc(CC(F)(F)C(F)(F)F)cc1)[C@H](O)c1cccc(Cl)c1 (racemic)
